{
  "source": "ChEMBL document CHEMBL1201862",
  "about": "“PubChem BioAssay data set” (2004)",
  "key": {"[1]": {"assay": "luciferase reporter signal reduction – luminescence, H4-C neuroglioblastoma cells, dose response (AID 2458);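 further: H4 neuroglioblastoma cells stably carrying a luciferase reporter gene fusion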", "format": "functional, cell-based"}, "[2]": {"assay": "inhibitors of SNCA 5'UTR-driven reporter translation, confirmation, H4 neuroglioma cells, luminescence (AID 1988)", "format": "functional, cell-based"}, "[3]": {"assay": "Artemis endonuclease inhibitor potency, dose response, biochemical, fluorescence intensity (AID 720701);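 further: Artemis endonuclease enzyme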", "format": "functional"}, "[4]": {"assay": "cytotoxicity in HEK-293T cells, dose response, cytotoxicity control for TCR NF-kB inhibitor project, luminescence, T-cell screen hits (AID 489026);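 further: cells exposed to compound about 14 hours before the viability readout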", "format": "functional, cell-based"}, "[5]": {"assay": "inhibitors of firefly luciferase expression or activity, dose response, H4 neuroglioma cells, luminescence (AID 1990)", "format": "functional, cell-based"}, "[6]": {"tested_on": "J774.A1", "assay": "Confirmation of image-based Screening Assay for Inhibitors of Phagocytosis. [Related pubchem assays (depositor defined):AID1029, AID1643]", "format": "functional, cell-based", "details": "Mus musculus"}, "[7]": {"assay": "cytotoxicity in HPDE-C7 cells, cell-based, fluorescence, HTS (AID 430)", "format": "functional", "details": "Homo sapiens"}, "[8]": {"assay": "Luminescence Cell-Based Dose Response HTS to Identify Inhibitors of 5'UTR Stem-Loop Driven Prion Protein mRNA Translation in H4 Neuroglioblastoma Cells. [Related pubchem assays: 1827 (Project Summary), 1813 (Primary HTS)]", "format": "functional"}, "[9]": {"assay": "cells", "format": "functional, cell-based"}, "[10]": {"assay": "cytotoxicity in KRAS-transformed pancreatic duct cells, primary screen, cell-based, fluorescence, HTS (AID 431)", "format": "functional", "details": "Homo sapiens"}, "[11]": {"assay": "inhibitors of SNCA 5'UTR-driven translation, confirmation, luminescence, H4 neuroglioblastoma cells, dose confirmation (AID 2454);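 further: H4 neuroglioblastoma cells carrying an alpha-synuclein 5'UTR luciferase reporter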", "format": "functional, cell-based"}, "[12]": {"molecular_target": "Metabotropic glutamate receptor 4 (Homo sapiens, UniProt Q14833)", "sequence (Q14833 whole entry)": "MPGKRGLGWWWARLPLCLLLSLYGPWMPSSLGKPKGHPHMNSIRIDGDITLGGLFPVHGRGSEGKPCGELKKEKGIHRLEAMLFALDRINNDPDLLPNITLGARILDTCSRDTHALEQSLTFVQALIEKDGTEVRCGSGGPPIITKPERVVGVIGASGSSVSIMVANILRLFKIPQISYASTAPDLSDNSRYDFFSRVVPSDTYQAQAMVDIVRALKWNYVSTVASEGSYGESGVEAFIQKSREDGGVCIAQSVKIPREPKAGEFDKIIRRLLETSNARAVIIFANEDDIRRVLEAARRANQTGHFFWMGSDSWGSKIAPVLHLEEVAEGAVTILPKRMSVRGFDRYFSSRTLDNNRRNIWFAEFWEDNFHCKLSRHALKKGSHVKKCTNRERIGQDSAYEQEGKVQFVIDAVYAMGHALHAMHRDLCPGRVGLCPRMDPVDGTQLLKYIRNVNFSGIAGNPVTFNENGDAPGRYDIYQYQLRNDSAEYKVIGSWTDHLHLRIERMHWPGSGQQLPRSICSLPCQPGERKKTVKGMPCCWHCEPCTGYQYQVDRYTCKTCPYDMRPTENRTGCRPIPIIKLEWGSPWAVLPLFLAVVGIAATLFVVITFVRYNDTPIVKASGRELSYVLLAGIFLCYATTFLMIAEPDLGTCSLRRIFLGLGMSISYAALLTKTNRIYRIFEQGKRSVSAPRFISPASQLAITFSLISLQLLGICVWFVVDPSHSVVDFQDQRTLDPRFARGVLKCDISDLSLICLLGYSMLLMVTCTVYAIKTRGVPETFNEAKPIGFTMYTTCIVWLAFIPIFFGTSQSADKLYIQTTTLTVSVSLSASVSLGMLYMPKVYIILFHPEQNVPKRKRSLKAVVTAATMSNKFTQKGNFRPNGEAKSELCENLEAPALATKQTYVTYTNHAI", "assay": "Modulation of the Metabotropic Glutamate Receptor mGluR4: Potency at human mGluR4. Modulation of intracellular Ca2+ using Fluo-4, AM, in CHO expressing recombinant receptor [Related pubchem assays (depositor defined):AID2437, AID2807]", "format": "functional, cell-based"}, "[13]": {"molecular_target": "Metabotropic glutamate receptor 4 (Rattus norvegicus, UniProt P31423)", "assay": "Modulation of the Metabotropic Glutamate Receptor mGluR4: Rat PAM Potency. [Related pubchem assays (depositor defined):AID2437, AID2807]", "format": "functional"}, "[14]": {"molecular_target": "Multidrug resistance protein CDR1 (Candida albicans, UniProt P43071)", "sequence (P43071 whole entry, looked up)": "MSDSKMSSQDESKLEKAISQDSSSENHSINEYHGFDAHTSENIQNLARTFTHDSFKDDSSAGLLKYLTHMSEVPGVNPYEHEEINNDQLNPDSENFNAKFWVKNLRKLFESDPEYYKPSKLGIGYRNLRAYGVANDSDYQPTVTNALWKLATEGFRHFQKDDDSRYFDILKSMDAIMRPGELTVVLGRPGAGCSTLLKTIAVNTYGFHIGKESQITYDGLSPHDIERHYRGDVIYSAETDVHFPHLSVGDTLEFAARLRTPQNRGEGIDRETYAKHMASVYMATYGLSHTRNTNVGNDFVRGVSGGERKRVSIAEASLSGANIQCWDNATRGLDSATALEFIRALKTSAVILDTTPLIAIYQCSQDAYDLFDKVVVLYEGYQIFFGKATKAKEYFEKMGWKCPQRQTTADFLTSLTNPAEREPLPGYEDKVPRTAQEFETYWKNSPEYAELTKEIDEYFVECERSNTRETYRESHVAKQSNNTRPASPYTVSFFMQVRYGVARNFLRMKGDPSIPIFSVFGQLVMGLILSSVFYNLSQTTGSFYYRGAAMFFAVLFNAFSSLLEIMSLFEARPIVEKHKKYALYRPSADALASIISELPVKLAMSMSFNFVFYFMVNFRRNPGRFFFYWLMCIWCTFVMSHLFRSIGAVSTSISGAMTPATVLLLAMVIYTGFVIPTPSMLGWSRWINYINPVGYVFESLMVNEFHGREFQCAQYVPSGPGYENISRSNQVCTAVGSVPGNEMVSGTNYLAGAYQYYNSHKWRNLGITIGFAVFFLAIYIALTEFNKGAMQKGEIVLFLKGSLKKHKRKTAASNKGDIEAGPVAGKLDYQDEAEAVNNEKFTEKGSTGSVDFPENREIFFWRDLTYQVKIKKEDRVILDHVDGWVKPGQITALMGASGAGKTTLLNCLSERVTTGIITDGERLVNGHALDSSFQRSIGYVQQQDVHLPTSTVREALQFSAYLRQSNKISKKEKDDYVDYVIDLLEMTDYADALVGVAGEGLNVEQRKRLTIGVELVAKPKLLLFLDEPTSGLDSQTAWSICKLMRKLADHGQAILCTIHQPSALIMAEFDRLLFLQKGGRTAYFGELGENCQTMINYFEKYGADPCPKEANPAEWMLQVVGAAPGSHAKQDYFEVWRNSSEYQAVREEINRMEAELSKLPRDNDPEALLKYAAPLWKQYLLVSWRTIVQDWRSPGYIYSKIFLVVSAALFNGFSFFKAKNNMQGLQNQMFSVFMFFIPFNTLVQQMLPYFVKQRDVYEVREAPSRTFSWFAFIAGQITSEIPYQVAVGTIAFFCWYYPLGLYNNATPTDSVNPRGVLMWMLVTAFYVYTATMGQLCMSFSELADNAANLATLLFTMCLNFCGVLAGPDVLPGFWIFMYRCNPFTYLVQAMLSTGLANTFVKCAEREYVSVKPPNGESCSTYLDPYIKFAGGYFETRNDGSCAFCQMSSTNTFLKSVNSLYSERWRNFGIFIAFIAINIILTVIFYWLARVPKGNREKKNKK", "assay": "CaCDR1 efflux pump inhibitors in yeast, dose response, S. cerevisiae AD1-8u, singleplex, Cherry Pick1 hits (AID 588606)", "format": "functional"}, "[15]": {"molecular_target": "NACHT, LRR and PYD domains-containing protein 3 (Homo sapiens, UniProt Q96P20)", "sequence (Q96P20 whole entry, the tested form may be a part)": "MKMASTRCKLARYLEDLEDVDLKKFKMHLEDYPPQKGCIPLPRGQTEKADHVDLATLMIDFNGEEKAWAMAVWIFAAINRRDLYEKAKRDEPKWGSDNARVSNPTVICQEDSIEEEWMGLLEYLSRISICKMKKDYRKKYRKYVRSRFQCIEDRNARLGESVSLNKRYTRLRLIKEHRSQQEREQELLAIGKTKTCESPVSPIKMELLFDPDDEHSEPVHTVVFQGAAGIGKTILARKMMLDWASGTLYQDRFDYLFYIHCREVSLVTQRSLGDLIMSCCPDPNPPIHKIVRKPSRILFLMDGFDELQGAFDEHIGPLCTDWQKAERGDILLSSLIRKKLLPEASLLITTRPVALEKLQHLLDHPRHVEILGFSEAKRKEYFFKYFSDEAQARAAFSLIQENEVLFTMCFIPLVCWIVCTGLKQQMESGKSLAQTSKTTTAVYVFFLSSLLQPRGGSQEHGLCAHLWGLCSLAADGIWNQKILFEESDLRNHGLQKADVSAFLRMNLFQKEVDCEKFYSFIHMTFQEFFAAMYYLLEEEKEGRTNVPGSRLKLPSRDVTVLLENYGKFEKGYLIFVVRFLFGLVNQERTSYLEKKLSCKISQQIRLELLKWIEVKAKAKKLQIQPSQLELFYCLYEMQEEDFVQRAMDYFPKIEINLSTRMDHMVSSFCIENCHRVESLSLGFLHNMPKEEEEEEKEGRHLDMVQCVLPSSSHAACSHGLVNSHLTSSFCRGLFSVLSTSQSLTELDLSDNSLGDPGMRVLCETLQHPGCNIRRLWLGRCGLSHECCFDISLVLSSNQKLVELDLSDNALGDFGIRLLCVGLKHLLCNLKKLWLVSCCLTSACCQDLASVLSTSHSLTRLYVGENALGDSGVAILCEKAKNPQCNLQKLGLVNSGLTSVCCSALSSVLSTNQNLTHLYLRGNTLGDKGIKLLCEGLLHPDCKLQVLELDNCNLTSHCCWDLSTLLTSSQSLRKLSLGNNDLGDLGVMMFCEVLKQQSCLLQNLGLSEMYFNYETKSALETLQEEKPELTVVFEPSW", "assay": "NALP3 inhibitors in yeast, dose response, luminescent (AID 488799)", "format": "functional"}, "[16]": {"assay": "inhibition of K1F phage lysis, E. coli UTI89, bacterial capsule biogenesis inhibitors, alamar blue (AID 488966)", "format": "functional"}, "[17]": {"molecular_target": "Large T antigen (Simian virus 40, UniProt P03070)", "sequence (P03070 whole entry)": "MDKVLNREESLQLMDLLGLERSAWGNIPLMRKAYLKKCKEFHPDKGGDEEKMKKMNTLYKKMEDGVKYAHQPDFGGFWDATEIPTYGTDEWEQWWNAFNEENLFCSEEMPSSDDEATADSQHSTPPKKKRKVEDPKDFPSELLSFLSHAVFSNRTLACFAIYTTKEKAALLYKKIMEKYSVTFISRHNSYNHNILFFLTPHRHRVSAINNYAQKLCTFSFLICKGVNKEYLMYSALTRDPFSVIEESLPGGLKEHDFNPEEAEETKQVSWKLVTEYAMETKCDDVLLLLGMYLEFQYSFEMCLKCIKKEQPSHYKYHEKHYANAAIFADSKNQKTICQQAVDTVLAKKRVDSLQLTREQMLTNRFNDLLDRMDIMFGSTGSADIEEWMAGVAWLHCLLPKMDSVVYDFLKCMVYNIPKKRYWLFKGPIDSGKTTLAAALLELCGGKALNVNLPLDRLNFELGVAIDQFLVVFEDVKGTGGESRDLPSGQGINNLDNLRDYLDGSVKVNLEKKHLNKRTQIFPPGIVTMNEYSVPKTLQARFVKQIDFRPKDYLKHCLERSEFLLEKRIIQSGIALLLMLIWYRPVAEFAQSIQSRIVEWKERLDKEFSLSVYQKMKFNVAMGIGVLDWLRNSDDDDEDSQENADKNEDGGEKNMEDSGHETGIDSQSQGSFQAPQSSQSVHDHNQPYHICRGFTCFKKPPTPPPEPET", "format": "functional, Betapolyomavirus macacae"}, "[18]": {"molecular_target": "Melanin-concentrating hormone receptor 1 (Homo sapiens, UniProt Q99705)", "sequence (Q99705 whole entry)": "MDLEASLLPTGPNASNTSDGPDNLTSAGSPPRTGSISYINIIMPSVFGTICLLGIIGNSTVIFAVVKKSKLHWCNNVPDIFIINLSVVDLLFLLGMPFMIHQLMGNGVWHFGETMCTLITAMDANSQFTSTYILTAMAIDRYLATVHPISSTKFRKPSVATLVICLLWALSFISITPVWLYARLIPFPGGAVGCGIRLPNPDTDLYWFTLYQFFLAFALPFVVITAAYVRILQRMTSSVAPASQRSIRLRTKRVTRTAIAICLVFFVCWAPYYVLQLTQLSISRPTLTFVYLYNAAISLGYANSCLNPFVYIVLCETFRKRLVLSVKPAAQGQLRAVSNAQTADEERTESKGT", "assay": "Late-stage fluorescence-based counterscreen for antagonists of the G-protein coupled receptor 7 (GPR7): cell-based dose response assay to identify antagonists of the melanin-concentrating hormone receptor 1 (MCHR1). [Related pubchem assays (depositor defined):AID1861, AID1880, AID1952, AID2148, AID2251, AID2257, AID485339]", "format": "functional"}, "[19]": {"molecular_target": "Neuropeptides B/W receptor type 1 (Homo sapiens, UniProt P48145)", "sequence (P48145 whole entry)": "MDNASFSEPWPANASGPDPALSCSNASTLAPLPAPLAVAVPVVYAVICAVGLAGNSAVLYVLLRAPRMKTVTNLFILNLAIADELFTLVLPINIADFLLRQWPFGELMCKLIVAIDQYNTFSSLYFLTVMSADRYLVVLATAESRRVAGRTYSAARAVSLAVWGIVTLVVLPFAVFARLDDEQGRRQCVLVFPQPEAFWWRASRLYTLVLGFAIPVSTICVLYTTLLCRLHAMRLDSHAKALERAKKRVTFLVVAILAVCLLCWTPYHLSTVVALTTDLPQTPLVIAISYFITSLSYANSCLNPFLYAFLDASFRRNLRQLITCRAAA", "assay": "GPR7 antagonist potency, late-stage follow-up, cell-based, fluorescence, dose response (AID 463251)", "format": "functional"}},
  "note": "The source made the active and inactive calls.",
  "data": [
    {"smiles": "CCN(CC)c1ccc(-c2nn3c(-c4[nH]nc5c4CCC5)nnc3s2)cc1", "values": [
      {"measurement": "EC50", "setting": "[1]", "result": "1210 nM (active)"},
      {"measurement": "EC50", "setting": "[2]", "result": "< 100 nM (active)"},
      {"measurement": "IC50", "setting": "[3]", "result": "> 20000 nM (inactive)"},
      {"measurement": "IC50", "setting": "[4]", "result": "61100 nM (inactive)"},
      {"measurement": "EC50", "setting": "[5]", "result": "294 nM (active)"},
      {"measurement": "IC50", "setting": "[6]", "result": "667 nM (active)"},
      {"measurement": "EC50", "setting": "[7]", "result": "750 nM (active)"},
      {"measurement": "EC50", "setting": "[8]", "result": "377 nM (active)"},
      {"measurement": "EC50", "setting": "[9]", "result": "859 nM (active)"},
      {"measurement": "EC50", "setting": "[10]", "result": "1060 nM (active)"},
      {"measurement": "EC50", "setting": "[11]", "result": "972 nM (active)"}
    ]},
    {"smiles": "CC1(C)CC(=O)N(c2ccc(NC(=O)c3ccccn3)cc2Cl)C1=O", "values": [
      {"measurement": "EC50", "setting": "[12]", "result": "1480 nM (active)"},
      {"measurement": "EC50", "setting": "[13]", "result": "2320 nM (active)"}
    ]},
    {"smiles": "CCC1Nc2ncnc(N3CCN(c4ccccn4)CC3)c2N(Cc2ccc(Br)cc2)C1=O", "note": "(centres undefined)", "values": [
      {"measurement": "EC50", "setting": "[14]", "result": "12400 nM (active)"},
      {"measurement": "IC50", "setting": "[15]", "result": "3710 nM (active)"}
    ]},
    {"smiles": "COc1ccc(NC2SC(=O)N(C)C2=O)cc1", "note": "(centres undefined)", "values": [
      {"measurement": "IC50", "setting": "[16]", "result": "> 300000 nM (active)"},
      {"measurement": "IC50", "setting": "[17]", "result": "80800 nM (active)"}
    ]},
    {"smiles": "CC(=O)OCc1ccc(Oc2c(Cl)cnn(-c3ccc(C(C)C)cc3)c2=O)cc1", "values": [
      {"measurement": "IC50", "setting": "[18]", "result": "3500 nM (active)"},
      {"measurement": "IC50", "setting": "[19]", "result": "1600 nM (active)"}
    ]}
  ]
}
